What is called DC50 is the midpoint of the concentration-degradation curve.

Molecules are shown by their SMILES. Counter-ions that a name gives are not always drawn.

The source of these data is patent US20250340561A1, “QUINAZOLINE COMPOUND FOR INDUCING DEGRADATION OF G12D MUTANT KRAS PROTEIN” (Astellas Pharma Inc., priority 2021, published 2025).

For the first assay, the target named is T1, KRAS G12D (Homo sapiens, UniProt P01116, G12D).
T1 construct: host or cells: AsPC-1 human pancreatic cancer cells
T1 sequence (P01116 1-188 isoform P01116-2 G12D): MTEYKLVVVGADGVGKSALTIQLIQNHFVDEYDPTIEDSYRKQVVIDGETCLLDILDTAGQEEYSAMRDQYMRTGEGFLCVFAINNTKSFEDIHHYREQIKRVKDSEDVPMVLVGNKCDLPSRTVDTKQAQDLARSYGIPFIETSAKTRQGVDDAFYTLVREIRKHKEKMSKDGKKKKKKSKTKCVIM
In words: Test Example 1-1: KRAS degradation action in AsPC-1, sandwich ELISA. As to conditions: AsPC-1 cells, 24 hours treatment, corrected with β-actin, 0% = 10 μM Example No. 7. Type of assay: cell-based. The method, then:
Test Example 1-1: Evaluation of KRAS Degradation Action on Human G12D Mutant KRAS-Positive Pancreatic Cancer Line AsPC-1
The KRAS degradation action of test compounds was evaluated by measuring the expression levels of KRAS G12D by a sandwich ELISA method.
AsPC-1 cells (ATCC, CRL-1682) were seeded at 90 μL per well on a 96-well plate (from IWAKI) to give 1.8×10^4 cells per well. As for the cell culture conditions, RPMI 1640 medium (from Merck) containing 10% fetal bovine serum (from Cytiva) was used in the presence of 5% CO2 at 37° C.
The next day, the test compounds (10 points having final concentrations in the range of 10 μM to 0.3 nM) were diluted 100-fold with a fresh medium and were added at 10 μL per well. The same treatments were each applied to 4 wells. In addition, in production of the sandwich ELISA plate, a capture antibody (anti-KRAS antibody, from LS Bio) mixed in Phosphate Buffered Saline [PBS; from FUJIFILM Wako Pure Chemical Corporation] in 1,000-fold dilution was added at 20 μL per well to a Maxisorp 384-well plate (from Thermo Scientific), and after attaching a seal, the plate was allowed to stand at 4° C. overnight.
After 24 hours of the test compound treatment, the culture supernatant was discarded. Immediately, a cytolytic solution (produced by adding, to a RIPA buffer [from Thermo Scientific], a Halt Protease Phosphatese Inhibitor Cocktail [from Thermo Scientific] and Benzonase Nuclease [from Merck] in amounts of 1/100 and 1/500, respectively) was added at 50 μL per well, and the cells were lysed. Then, equally treated 4 wells were combined to prepare a cell lysate sample of 200 μL in total. For KRAS detection, the Maxisorp 384-well plate which had been treated with the capture antibody since the previous day was washed (twice with 25 μL each) with 0.05% Tween-20-containing PBS (from Thermo Scientific; 20×PBS Tween-20 was diluted 20-fold with ion exchange water and used) and was treated with a blocking solution (Intercept Blocking Buffer; from LI-COR Biosciences) for 60 minutes, and then, the cell lysate samples were added at 20 μL per well. For 3-actin detection, the cell lysate samples were added as they were at 20 μL per well to the Maxisorp 384-well plate, and after attaching a seal, the plate was allowed to stand at 4° C. overnight.
The next day, after washing the KRAS detection plate with 0.05% Tween-20-containing PBS, an anti-Ras (G12D mutant specific) antibody (from Cell Signaling Technology) diluted 1,000-fold with a blocking solution was added at 20 μL per well as a detection antibody, and the plate was allowed to stand for 5 hours at room temperature. Then, the plate was centrifuged to remove the supernatant (using a centrifugal dehydrator machine, the supernatant was removed by the same method hereinafter) and was washed with 0.05% Tween-20-containing PBS. Then, an anti-Rabbit IgG […] antibody (from Cell Signaling Technology) diluted 1,000-fold with a blocking solution was added at 20 μL per well as a secondary antibody, and the plate was allowed to stand for 1 hour at room temperature. The plate was centrifuged to remove the supernatant and was washed with 0.05% Tween-20-containing PBS. Then, a BM chemiluminescent ELISA substrate (from Merck) was added at 20 μL per well, and the amounts of luminescence were measured with 2103 EnVision (from PerkinElmer). In addition, the 3-actin detection plate was washed with 0.05% Tween-20-containing PBS and was treated with a blocking solution for 60 minutes, and then, an anti-β-actin antibody (from Abcam) diluted 1,000-fold with a blocking solution was added at 20 μL per well as a detection antibody. The plate was allowed to stand for 5 hours at room temperature. Then, the plate was centrifuged to remove the supernatant and washed with 0.05% Tween-20-containing PBS, and then, an anti-Mouse IgG RP-linked antibody (from Cell Signaling Technology) diluted 1,000-fold with a blocking solution was added at 20 μL per well as a secondary antibody. […]
Take `CCc1ccncc1Oc1nc(N2C[C@@H]3C[C@H]2CN3)c2cc(C3CC3)c(-c3c(C)c(F)cc4[nH]ncc34)c(OCc3ccc(-c4cn([C@H](C(=O)N5C[C@H](O)C[C@H]5C(=O)N[C@@H](CO)c5ccc(-c6scnc6C)cc5)C(C)C)nn4)cc3)c2n1` [Example 25]: the DC50 was 44 nM.

`Cc1ncsc1-c1ccc(CNC(=O)[C@@H]2C[C@@H](O)CN2C(=O)[C@H](C(C)C)n2cc(-c3ccc(COc4c(-c5c(C)c(F)cc6[nH]ncc56)c(C5CC5)cc5c(N6C[C@@H]7C[C@H]6CN7)nc(OC6CCOCC6)nc45)cc3)nn2)cc1` [Example 10] yielded a DC50 of 124 nM.

`Cc1ncsc1-c1ccc([C@H](CO)NC(=O)[C@@H]2C[C@@H](O)CN2C(=O)[C@H](C(C)C)n2cc(-c3ccc(COc4c(-c5c(C)c(F)cc6[nH]ncc56)c(C5CC5)cc5c(N6C[C@@H]7C[C@H]6CN7)nc(OC6COC6)nc45)cc3)nn2)cc1` [Example 27] displayed a DC50 of 55 nM. Compared with the last compound, the DC50 is about 2.3-fold lower.

On to `Cc1c(F)cc2[nH]ncc2c1-c1c(C2CC2)cc2c(N3C[C@@H]4C[C@H]3CN4)nc(OC3CCOCC3)nc2c1OCc1ccc(-c2cn([C@H](C(=O)N3C[C@H](O)C[C@H]3C(=O)N[C@@H](CO)c3ccc(-c4ccnn4C)cc3)C(C)C)nn2)cc1` [Example 22], for which half-maximal degradation (DC50) was put at 62 nM.

`Cc1ncsc1-c1ccc([C@H](CO)NC(=O)[C@@H]2C[C@@H](O)CN2C(=O)[C@H](C(C)C)n2cc(-c3ccc(COc4c(-c5c(C)c(F)cc6[nH]ncc56)c(C5CC5)cc5c(N6C[C@@H]7C[C@H]6CN7)nc(O[C@@H]6CCOC6)nc45)cc3)nn2)cc1` [Example 28]: the DC50 came out at 45 nM.

On to `CCOc1nc(N2C[C@@H]3C[C@H]2CN3)c2cc(C3CC3)c(-c3c(C)c(F)cc4[nH]ncc34)c(OCc3ccc(C(=O)N[C@H](C(=O)N4C[C@H](O)C[C@H]4C(=O)N[C@@H](CO)c4ccc(-c5scnc5C)cc4)C(C)C)cc3)c2n1` [Example 5], for which the DC50 is 153 nM.

The compound `Cc1c(F)cc2[nH]ncc2c1-c1c(C2CC2)cc2c(N3C[C@@H]4C[C@H]3CN4)nc(OC3CCOCC3)nc2c1OCc1ccc(-c2cn([C@H](C(=O)N3C[C@H](O)C[C@H]3C(=O)N[C@@H](CO)c3ccc(-c4ccnn4C)cc3)C(C)C)nn2)cc1` [Example 23] returned a DC50 of 34 nM.

In turn, `Cc1ncsc1-c1ccc([C@H](CN(C)C)NC(=O)[C@@H]2C[C@@H](O)CN2C(=O)[C@H](C(C)C)n2cc(-c3ccc(COc4c(-c5c(C)c(F)cc6[nH]ncc56)c(C5CC5)cc5c(N6C[C@@H]7C[C@H]6CN7)nc(OC6CCOCC6)nc45)cc3)nn2)cc1` [Example 19] had a DC50 of 139 nM. Against the preceding compound, the DC50 is about 4.1-fold higher.

Take `Cc1c(F)cc2[nH]ncc2c1-c1c(C2CC2)cc2c(N3C[C@@H]4C[C@H]3CN4)nc(OC3CCOCC3)nc2c1OCc1ccc(-c2cn([C@H](C(=O)N3C[C@H](O)C[C@H]3C(=O)N[C@@H](CO)c3ccc(N4CCOC4=O)cc3)C(C)C)nn2)cc1` [Example 20, (4R)-1-[(2S)-2-(4-{4-[({6-cyclopropyl-4-[(1S,4S)-2,5-diazabicyclo[2.2.1]heptan-2-yl]-7-(6-fluoro-5-methyl-1H-indazol-4-yl)-2-[(oxan-4-yl)oxy]quinazolin-8-yl}oxy)methyl]phenyl}-1H-1,2,3-triazol-1-yl)-3-methylbutanoyl]-4-hydroxy-N-{(1R)-2-hydroxy-1-[4-(2-oxo-1,3-oxazolidin-3-yl)phenyl]ethyl}-L-prolinamide]: half-maximal degradation (DC50) was put at 100 nM.

Regarding `Cc1ncsc1-c1ccc(C2(NC(=O)[C@@H]3C[C@@H](O)CN3C(=O)[C@H](C(C)C)n3cc(-c4ccc(COc5c(-c6c(C)c(F)cc7[nH]ncc67)c(C6CC6)cc6c(N7C[C@@H]8C[C@H]7CN8)nc(OC7CCOCC7)nc56)cc4)nn3)CC2)cc1` [Example 6], the DC50 is 103 nM.

The compound `Cc1ncsc1-c1ccc([C@H](CO)NC(=O)[C@@H]2C[C@@H](O)CN2C(=O)[C@H](C(C)C)n2cc(-c3ccc(COc4c(-c5c(C)c(F)cc6[nH]ncc56)c(C5CC5)cc5c(N6C[C@@H]7C[C@H]6CN7)nc(O[C@H]6CCOC6)nc45)cc3)nn2)cc1` [Example 29] displayed a DC50 of 33 nM.

`Cc1ncsc1-c1ccc(C2(NC(=O)[C@@H]3C[C@@H](O)CN3C(=O)[C@@H](NC(=O)c3ccc(COc4c(-c5c(C)c(F)cc6[nH]ncc56)c(C5CC5)cc5c(N6C[C@@H]7C[C@H]6CN7)nc(OC6CCOCC6)nc45)cc3)C(C)C)CC2)cc1` [Example 1] yielded a DC50 of 123 nM.

Turning to `Cc1ncsc1-c1ccc([C@H](CO)NC(=O)[C@@H]2C[C@@H](O)CN2C(=O)[C@@H](NC(=O)c2ccc(COc3c(-c4c(C)c(F)cc5[nH]ncc45)c(C4CC4)cc4c(N5C[C@@H]6C[C@H]5CN6)nc(OC5CCOCC5)nc34)cc2)C(C)C)cc1` [Example 3], it took 140 nM to reach half-maximal degradation (DC50).

`Cc1ncsc1-c1ccc([C@H](CO)NC(=O)[C@@H]2C[C@@H](O)CN2C(=O)[C@H](C(C)C)N2Cc3cc(COc4c(-c5c(C)c(F)cc6[nH]ncc56)c(C5CC5)cc5c(N6C[C@@H]7C[C@H]6CN7)nc(OC6CCOCC6)nc45)ccc3C2=O)cc1` [Example 4] displayed a DC50 of 897 nM.

The compound `Cc1c(F)cc2[nH]ncc2c1-c1c(C2CC2)cc2c(N3C[C@@H]4C[C@H]3CN4)nc(OC3CCOCC3)nc2c1OCc1ccc(-c2cn([C@H](C(=O)N3C[C@H](O)C[C@H]3C(=O)N[C@@H](CO)c3ccc(F)cc3)C(C)C)nn2)cc1` [Example 13] showed a DC50 of 151 nM.

In the case of `Cc1ncsc1-c1ccc([C@H](CO)NC(=O)[C@@H]2C[C@@H](O)CN2C(=O)[C@H](C(C)C)n2cc(-c3ccc(COc4c(-c5c(C)c(F)cc6[nH]ncc56)c(C5CC5)cc5c(N6C[C@@H]7C[C@H]6CN7)nc(OC6CCOCC6)nc45)cc3)nn2)cc1` [Example 8, (4R)-1-[(2S)-2-(4-{4-[({6-cyclopropyl-4-[(1S,4S)-2,5-diazabicyclo[2.2.1]heptan-2-yl]-7-(6-fluoro-5-methyl-1H-indazol-4-yl)-2-[(oxan-4-yl)oxy]quinazolin-8-yl}oxy)methyl]phenyl}-1H-1,2,3-triazol-1-yl)-3-methylbutanoyl]-4-hydroxy-N-{(1R)-2-hydroxy-1-[4-(4-methyl-1,3-thiazol-5-yl)phenyl]ethyl}-L-prolinamide], it took 37 nM to reach half-maximal degradation (DC50).

Still in this assay, the particulars now being: AsPC-1 cells, 24 hours treatment, corrected with β-actin, 0% = 10 μM Example No. 7, hydrochloride.
With `Cc1ncsc1-c1ccc([C@H](CO)NC(=O)[C@@H]2C[C@@H](O)CN2C(=O)[C@H](C(C)C)n2cc(-c3ccc(COc4c(-c5c(C)c(F)cc6[nH]ncc56)c(C5CC5)cc5c(N6C[C@@H]7C[C@H]6CN7)nc(OC6CCOCC6)nc45)cc3)nn2)cc1` [Example 7, (4R)-1-[(2S)-2-(4-{4-[({6-cyclopropyl-4-[(1S,4S)-2,5-diazabicyclo[2.2.1]heptan-2-yl]-7-(6-fluoro-5-methyl-1H-indazol-4-yl)-2-[(oxan-4-yl)oxy]quinazolin-8-yl}oxy)methyl]phenyl}-1H-1,2,3-triazol-1-yl)-3-methylbutanoyl]-4-hydroxy-N-{(1R)-2-hydroxy-1-[4-(4-methyl-1,3-thiazol-5-yl)phenyl]ethyl}-L-prolinamide n hydrochloride], the DC50 was 46 nM.
